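Grown in 96-well plates, cells were treated for 48 hours with each compound at five concentrations. Insufficient inhibition: endpoint recorded as highest concentration tested. At the TGI there is no net growth.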
Tests used:
Experiment in all cases: NCI-60 cell line screen, 48 h
[1] = test system: IGROV1 ovarian
[2] = test system: M14 melanoma
[3] = test system: OVCAR-5 ovarian
[4] = test system: HCT-15 colon
[5] = test system: NCI/ADR-RES ovarian
[6] = test system: SF-295 CNS
[7] = test system: SF-539 CNS
[8] = test system: SK-OV-3 ovarian
[9] = test system: SNB-19 CNS

Row | SMILES | TGI [1] [µM] | TGI [2] [µM] | TGI [3] [µM] | TGI [4] [µM] | TGI [5] [µM] | TGI [6] [µM] | TGI [7] [µM] | TGI [8] [µM] | TGI [9] [µM]
1 | COc1ccc(C2=NNC(c3cc4cc(Br)ccc4nc3Cl)C2)cc1 (stereo not drawn) | > 25 | > 25 | > 25 |  |  |  |  |  | 
2 | O=C(NNS(=O)(=O)c1ccccc1)c1csc(NC(=S)NC2CCCCC2)n1 | 85.1 | > 100 | > 100 | > 100 | > 100 | > 100 | 62.3 | > 100 | 
3 | COc1cc(S(=O)(=O)Nc2ccc(-c3csc(N4C(=O)C(C)SC4c4ccccc4)n3)cc2)ccc1Cl (stereo not drawn) | > 100 | > 100 | > 100 | > 100 | > 100 |  | > 100 |  | > 100
4 | N#CCc1nc2cc(C(F)(F)F)ccc2s1 |  |  | > 100 | > 100 | > 100 | > 100 | > 100 | > 100 | 
5 | CC(C)C1=C(Cc2ccccc2)C(=O)O/C1=C\c1ccc(O)c(Cl)c1 | 30.5 | 31.3 | 32.3 | 29.6 |  | 29.5 | 33.2 | 33.7 | 33.7
6 | COc1cc(C(O)C(=O)c2cnc3cc([N+](=O)[O-])ccc3n2)ccc1O (stereo not drawn) | > 100 | > 100 |  | > 100 |  | > 100 | > 100 | > 100 | > 100
7 | CN(C)C=NCC(O)c1ccccc1 (stereo not drawn) | > 100 | > 100 | > 100 | > 100 | > 100 |  | > 100 | > 100 | > 100
8 | C=CCOCn1ccc(N)nc1=O | > 100 | > 100 |  | > 100 |  | > 100 | > 100 | > 100 | > 100
9 | Cc1ccc(NC(=O)/C(=N/NC(=O)C[N+](C)(C)C)c2nc3ccccc3[nH]c2=O)cc1 | > 100 | > 100 | > 100 | > 100 |  | > 100 | > 100 | > 100 | > 100
10 | CC(C)=CCC[C@@H](C)C1=CC(=O)C(C)=C(O)C1=O | 23.2 | 17.4 | 27.5 | 8.08 | 11.3 | 27.3 |  | 31.8 | 29.4
11 | COc1ccc(C2C(C#N)=C(S)N(C3OC(CO)C(O)C(O)C3O)C(C)=C2C(C)=O)cc1 (stereo not drawn) | > 100 | > 100 | > 100 | > 100 | > 100 | > 100 | > 100 |  | > 100
12 | Cn1cnc(SC2=C3C(=O)C=C4S[C@H]5C[C@]42c2c(c(O)c4c6c2=[N+]3CCC=6C=N4)N5)c1CC(N)C(=O)O (stereo partly drawn) | 30.2 | 29.1 | 28.5 | > 100 |  | 29.4 | 31.8 | 52.8 | 32
13 | O=C(Nc1ccc(Sc2ccc(N=Nc3c(O)c(S(=O)(=O)O)cc4cc(S(=O)(=O)O)ccc34)cc2)cc1)c1ccc(N=Nc2c(O)c(S(=O)(=O)O)cc3cc(S(=O)(=O)O)ccc23)cc1 | > 100 | 91.8 | > 100 | 28 |  | > 100 | > 100 | > 100 | > 100
14 | O=C1CC(C(COCc2ccccc2)OCc2ccccc2)CC(=O)N1 (stereo not drawn) | > 100 | > 100 | > 100 | > 100 |  | > 100 | > 100 |  | > 100
15 | CC1CCOc2ccc(cc2)C=Nc2ccc(cc2)-c2ccc(cc2)N=Cc2ccc(cc2)OCC1 (stereo not drawn) | > 100 | > 100 | > 100 | > 100 | > 100 | > 100 | > 100 | > 100 | 
16 | CC1=NN(C(=O)Cc2ccccc2)C(=O)/C1=C\c1ccccc1O | > 100 | > 100 | > 100 | > 100 |  | > 100 | > 100 | > 100 | > 100
17 | Cc1ccc(N=C2SC(=NN(C)C)SC2=Nc2ccc(C)cc2)cc1 | > 100 |  | > 100 | > 100 | > 100 | > 100 | > 100 | > 100 | > 100
18 | O=S(c1ccc(Cl)cc1)c1ccccc1C1=NCCN1 (stereo not drawn) | > 100 | > 100 | > 100 | > 100 | > 100 | > 100 |  | > 100 | > 100
